Twelve compounds from patent publication US10023543B2 (CELGENE QUANTICEL RESEARCH, INC., priority 2014, dated 2018) can be followed below.

Some results are limits rather than exact numbers.

In the assay the test system is THP-1 (AML) cells. Put plainly: LSD1 CD11b cellular assay (flow cytometry). The class given is cell-based. As to conditions: Homo sapiens, THP-1, 96 h; CD11b expressing cells, 4 days; read-out: THP-1 IC50.
Turning to `CNC(=O)c1ccc(-c2c(-c3ccc(C#N)c(F)c3)nc(N3CCC(N)CC3)n(C)c2=O)cn1` [Example 50, 5-[2-(4-amino-piperidin-1-yl)-4-(4-cyano-3-fluoro-phenyl)-1-methyl-6-oxo-1,6-dihydro-pyrimidin-5-yl]-pyridine-2-carboxylic acid methylamide], the IC50 (as a rule, the concentration needed to halve the response being measured) is below 100 nM.

Consider `CN(C)C1CCN(c2nc(-c3ccc(C#N)c(F)c3)c(-c3ccc4cn[nH]c4c3)c(=O)n2C)CC1` [Example 84, 4-[2-(4-dimethylamino-piperidin-1-yl)-5-(2H-indazol-6-yl)-1-methyl-6-oxo-1,6-dihydro-pyrimidin-4-yl]-2-fluoro-benzonitrile], for which the IC50 was below 100 nM.

Regarding `CNc1ccc(-c2c(-c3ccc(C#N)c(F)c3)nc(N3CCC(N)CC3)n(C)c2=O)cc1` [Example 90, 4-[2-(4-aminopiperidin-1-yl)-1-methyl-5-[4-(methylamino)phenyl]-6-oxopyrimidin-4-yl]-2-fluorobenzonitrile], the IC50 is below 100 nM.

In the case of `CNC1CCN(c2nc(-c3ccc(C#N)c(F)c3)c(-c3ccc4c(cnn4C)c3)c(=O)n2C)CC1` [Example 87, 2-fluoro-4-[1-methyl-2-[4-(methylamino)piperidin-1-yl]-5-(1-methylindazol-5-yl)-6-oxopyrimidin-4-yl]benzonitrile], the IC50 is below 100 nM. For the compound `Cn1c(N2CCC(N)CC2)nc(-c2ccc(C#N)c(F)c2)c(-c2ccc(CO)cc2)c1=O` [Example 100, 4-[2-(4-aminopiperidin-1-yl)-5-[4-(hydroxymethyl)phenyl]-1-methyl-6-oxopyrimidin-4-yl]-2-fluorobenzonitrile], the IC50 is below 100 nM. Take `COc1ccc(-c2c(-c3ccc(C#N)c(F)c3)nc(N3CCC[C@@H](N)C3)n(C)c2=O)cc1F` [Example 25, 4-[2-((3R)-3-aminopiperidyl)-5-(3-fluoro-4-methoxyphenyl)-1-methyl-6-oxohydropyrimidin-4-yl]-2-fluorobenzenecarbonitrile]: the IC50 is below 100 nM.

For `COc1ccc(-c2c(-c3ccc(C#N)c(F)c3)nc(N3CCC(C)(N)CC3)n(C)c2=O)cc1F` [Example 32, 4-[2-(4-amino-4-methyl-piperidin-1-yl)-5-(3-fluoro-4-methoxy-phenyl)-1-methyl-6-oxo-1,6-dihydro-pyrimidin-4-yl]-2-fluoro-benzonitrile], the IC50 was below 100 nM.

As for `Cn1c(N2CCC(N)CC2)nc(-c2ccc(C#N)c(F)c2)c(-c2ccc3c(c2)CNC3=O)c1=O` [Example 42, 4-[2-(4-amino-piperidin-1-yl)-1-methyl-6-oxo-5-(1-oxo-2,3-dihydro-1H-isoindol-5-yl)-1,6-dihydro-pyrimidin-4-yl]-2-fluoro-benzonitrile], the IC50 fell in the range of 100 to 1000 nM. Consider `Cn1c(N2CCC(N)CC2)nc(-c2ccc(C#N)c(F)c2)c(-c2ccc3cc[nH]c3c2)c1=O` [Example 75, 4-[2-(4-amino-piperidin-1-yl)-5-(1H-indol-6-yl)-1-methyl-6-oxo-1,6-dihydro-pyrimidin-4-yl]-2-fluoro-benzonitrile], for which the IC50 is below 100 nM. To `Cn1c(N2CCC(N)CC2)nc(-c2ccc(C#N)c(F)c2)c(-c2cccc(F)c2)c1=O` [Example 102, 4-[2-(4-aminopiperidin-1-yl)-5-(3-fluorophenyl)-1-methyl-6-oxopyrimidin-4-yl]-2-fluorobenzonitrile] belongs below 100 nM. For `COc1ccc(-c2c(-c3ccc(C#N)c(F)c3)nc(N3CC(N)C3)n(C)c2=O)cc1` [Example 64, 4-[2-(3-amino-azetidin-1-yl)-5-(4-methoxy-phenyl)-1-methyl-6-oxo-1,6-dihydro-pyrimidin-4-yl]-2-fluoro-benzonitrile], the IC50 lay within 100 to 1000 nM. Regarding `Cn1c(N2CCC(N)CC2)nc(-c2ccc(C#N)c(F)c2)c(-c2ccc3[nH]ccc3c2)c1=O` [Example 73, 4-[2-(4-amino-piperidin-1-yl)-5-(1H-indol-5-yl)-1-methyl-6-oxo-1,6-dihydro-pyrimidin-4-yl]-2-fluoro-benzonitrile], the IC50 is below 100 nM.
